Data: ChEMBL document CHEMBL3853343, “Discovery of novel 2',4'-dimethyl-[4,5'-bithiazol]-2-yl amino derivatives as orally bioavailable TRPV4 antagonists for the treatment of pain: Part 2” (Bioorg Med Chem Lett, 2016)

Experiments:
[1] = Stability in rat liver microsomes assessed as parent compound remaining after 30 mins in presence or absence of NADPH; assay type: ADME, microsome; settings: read-out: Stability
[2] = molecular target: Transient receptor potential cation channel subfamily V member 4 (Rattus norvegicus, UniProt Q9ERZ8); experiment: Antagonist activity at rat TRPV4 assessed as inhibition of 4alpha-PDD-induced activation
Transient receptor potential cation channel subfamily V member 4 (Rattus norvegicus, UniProt Q9ERZ8), sequence (Q9ERZ8 whole entry): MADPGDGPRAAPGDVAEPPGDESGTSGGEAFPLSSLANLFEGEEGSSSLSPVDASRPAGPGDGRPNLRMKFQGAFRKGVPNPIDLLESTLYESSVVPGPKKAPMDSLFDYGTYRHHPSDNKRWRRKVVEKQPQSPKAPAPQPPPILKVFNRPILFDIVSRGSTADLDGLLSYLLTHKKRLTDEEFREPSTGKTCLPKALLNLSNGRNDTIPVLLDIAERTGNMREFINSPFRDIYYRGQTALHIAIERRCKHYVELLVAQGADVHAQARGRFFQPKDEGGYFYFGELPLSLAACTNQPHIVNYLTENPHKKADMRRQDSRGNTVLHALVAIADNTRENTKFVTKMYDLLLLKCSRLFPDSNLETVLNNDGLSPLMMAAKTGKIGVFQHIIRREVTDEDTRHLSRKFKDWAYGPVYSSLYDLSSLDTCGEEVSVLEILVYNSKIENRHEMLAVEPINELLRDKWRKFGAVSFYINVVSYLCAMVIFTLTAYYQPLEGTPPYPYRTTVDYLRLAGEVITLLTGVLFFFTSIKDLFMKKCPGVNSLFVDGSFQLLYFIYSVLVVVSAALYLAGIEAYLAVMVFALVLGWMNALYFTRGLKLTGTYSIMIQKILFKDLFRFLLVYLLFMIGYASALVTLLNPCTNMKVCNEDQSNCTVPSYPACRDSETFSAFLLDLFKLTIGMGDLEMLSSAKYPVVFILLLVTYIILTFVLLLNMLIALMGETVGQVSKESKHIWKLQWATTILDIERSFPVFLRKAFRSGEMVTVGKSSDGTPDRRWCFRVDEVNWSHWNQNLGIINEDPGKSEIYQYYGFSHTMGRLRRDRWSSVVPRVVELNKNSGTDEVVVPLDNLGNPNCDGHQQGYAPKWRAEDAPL

[3] = molecular target: Transient receptor potential cation channel subfamily V member 4 (Homo sapiens, UniProt Q9HBA0); experiment: Antagonist activity at human TRPV4 assessed as inhibition of 4alpha-PDD-induced activation
Transient receptor potential cation channel subfamily V member 4 (Homo sapiens, UniProt Q9HBA0), sequence (Q9HBA0 whole entry): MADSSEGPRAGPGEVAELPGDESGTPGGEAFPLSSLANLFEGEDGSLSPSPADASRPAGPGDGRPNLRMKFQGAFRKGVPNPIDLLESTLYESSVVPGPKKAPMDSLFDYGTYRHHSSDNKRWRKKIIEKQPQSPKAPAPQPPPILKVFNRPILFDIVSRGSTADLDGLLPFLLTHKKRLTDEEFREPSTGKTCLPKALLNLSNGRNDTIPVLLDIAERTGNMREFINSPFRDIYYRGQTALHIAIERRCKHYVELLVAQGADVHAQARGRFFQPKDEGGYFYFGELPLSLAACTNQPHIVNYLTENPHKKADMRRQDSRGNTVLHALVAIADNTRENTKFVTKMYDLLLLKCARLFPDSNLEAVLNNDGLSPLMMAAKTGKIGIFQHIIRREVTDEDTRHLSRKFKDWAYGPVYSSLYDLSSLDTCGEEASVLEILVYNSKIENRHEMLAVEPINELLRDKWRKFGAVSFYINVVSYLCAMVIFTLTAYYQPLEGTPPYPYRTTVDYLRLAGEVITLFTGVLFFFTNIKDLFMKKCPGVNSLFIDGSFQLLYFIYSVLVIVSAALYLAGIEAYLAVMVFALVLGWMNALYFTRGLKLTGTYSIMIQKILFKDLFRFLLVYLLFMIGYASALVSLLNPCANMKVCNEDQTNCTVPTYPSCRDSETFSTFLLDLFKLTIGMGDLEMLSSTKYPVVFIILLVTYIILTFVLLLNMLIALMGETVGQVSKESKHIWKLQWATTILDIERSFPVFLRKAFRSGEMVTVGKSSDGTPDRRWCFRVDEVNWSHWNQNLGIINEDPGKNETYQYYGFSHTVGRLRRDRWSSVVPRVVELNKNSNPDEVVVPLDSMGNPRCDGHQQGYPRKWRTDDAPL

[4] = Stability in human liver microsomes assessed as parent compound remaining after 30 mins in presence or absence of NADPH; assay type: ADME, microsome; settings: read-out: Stability
[5] = Antagonist activity at guinea pig TRPV4 assessed as inhibition of 4alpha-PDD-induced activation; design: species or system Cavia porcellus
Cavia porcellus = experiment: Analgesic activity in po dosed Dunkin-Hartley guinea pig complete Freund's adjuvant-induced mechanical hyperalgesia model assessed as reversal in paw withdrawal threshold measured up to 6 hrs post dose relative to control; assay type: functional
[6] = Protein binding in guinea pig; assay type: ADME, Cavia porcellus; settings: read-out: PB (converted)
[7] = Ratio of free plasma concentration to IC50 for TRPV4 in guinea pig; assay type: ADME, cell-free, Cavia porcellus
[8] = Selectivity ratio of IC50 for rat TRPV4 to IC50 for human TRPV4
[9] = Plasma concentration in po dosed Dunkin-Hartley guinea pig complete Freund's adjuvant-induced mechanical hyperalgesia model measured up to 6 hrs post dose; assay type: ADME, organism-based, Cavia porcellus
Rattus norvegicus [10] = experiment: Analgesic activity in rat assessed as reversal of complete Freund's adjuvant-induced mechanical hyperalgesia at 30 mg/kg, po after 5 hrs relative to control; assay type: functional
Rattus norvegicus [11] = experiment: Analgesic activity in rat assessed as reversal of complete Freund's adjuvant-induced mechanical hyperalgesia at 30 mg/kg, po after 1 hr relative to control; assay type: functional

SMILES | remaining at 0.5 h [1] | IC50 [2] | IC50 [3] | remaining at 0.5 h [4] | IC50 [5] | other results
Cc1nc(C)c(-c2csc(Nc3ccc(C(=O)N4C5CCC4CN(c4ccc(Cl)cc4)C5)cn3)n2)s1 | 68.3% | 410 nM | 3.2 nM | 72.6% | 8.8 nM | –
Cc1nc(C)c(-c2csc(Nc3ccc(C(=O)N4[C@@H]5CC[C@H]4C/C(=N/OC4CCN(C)CC4)C5)cn3)n2)s1 | 83.7% | 57 nM | 4.5 nM | 77% | 6.4 nM | –
CCNC(=O)O[C@H]1C[C@H]2CC[C@@H](C1)N2C(=O)c1ccc(Nc2nc(-c3sc(C)nc3C)cs2)nc1 | – | – | 1.9 nM | – | – | –
Cc1nc(C)c(-c2csc(Nc3ccc(C(=O)N4[C@@H]5CC[C@H]4C/C(=N/OCCCO)C5)cn3)n2)s1 | 59.1% | 57 nM | 2.9 nM | 64.5% | 3.3 nM | –
Cc1nc(C)c(-c2csc(Nc3ccc(C(=O)N4C5CCC4CN(c4ccc(Cl)cn4)C5)cn3)n2)s1 | 89% | 20 nM | 0.9 nM | 72.7% | 0.7 nM | –
Cc1nc(C)c(-c2csc(Nc3ccc(C(=O)N4C5CCC4CN(C4CCCCC4)C5)cn3)n2)s1 | 0% | – | 2.8 nM | 0.58% | – | –
COc1ccc2c(c1)c(CC(=O)O)c(C)n2C(=O)c1ccc(Cl)cc1 [INDOMETHACIN] | – | – | – | – | – | Activity (Rattus norvegicus [10]): 6.1%; Activity (Rattus norvegicus [11]): 11.4%
COC(=O)N1CC2CCC(C1)N2C(=O)c1ccc(Nc2nc(-c3sc(C)nc3C)cs2)nc1 | 53% | 53 nM | 1.7 nM | 48.6% | 2 nM | –
COC(=O)N1CCN(C(=O)c2ccc(Nc3nc(-c4sc(C)nc4C)cs3)nc2)C(C(F)(F)F)C1 (stereo not given) | 49.2% | 15 nM | 0.57 nM | 64.1% | 2.7 nM | –
Cc1nc(C)c(-c2csc(Nc3ccc(C(=O)N4[C@@H]5CC[C@H]4C[C@@H](OC(=O)NCCF)C5)cn3)n2)s1 | – | 290 nM | 6.7 nM | – | 6.2 nM | –
Cc1c(C(=O)Nc2cccc(C(F)(F)F)c2)cc(-c2ccccc2)n1CCCN1CCOCC1 | – | – | 57 nM | – | – | –
Cc1nc(C)c(-c2csc(Nc3ccc(C(=O)N4[C@@H]5CC[C@H]4C[C@@H](Oc4ncc(C(F)(F)F)cn4)C5)cn3)n2)s1 | – | 120 nM | 4.8 nM | – | 2.7 nM | –
Cc1nc(C)c(-c2csc(Nc3ccc(C(=O)N4[C@@H]5CC[C@H]4C[C@@H](NC(=O)CC(F)(F)F)C5)cn3)n2)s1 | – | – | 19 nM | – | – | –
COC(=O)N1CC2CCCC(C1)N2C(=O)c1ccc(Nc2nc(-c3sc(C)nc3C)cs2)nc1 | 43.8% | – | 1.8 nM | 33.7% | – | –
Cc1nc(C)c(-c2csc(Nc3ccc(C(=O)N4C5CCC4CN(c4ncc(Cl)cn4)C5)cn3)n2)s1 | 68.4% | 16 nM | 0.3 nM | 76.4% | 2 nM | –
Cc1nc(C)c(-c2csc(Nc3ccc(C(=O)N4[C@@H]5CC[C@H]4C/C(=N/OCC(F)(F)F)C5)cn3)n2)s1 | 50.4% | 18 nM | 0.36 nM | 47.7% | 2 nM | –
Cc1nc(C)c(-c2csc(Nc3ccc(C(=O)N4[C@@H]5CC[C@H]4C/C(=N/OC[C@@H](O)C(F)(F)F)C5)cn3)n2)s1 | 49.6% | 29 nM | 1.1 nM | 43% | 2.3 nM | –
COC(=O)N1CCN(C(=O)c2ccc(Nc3nc(-c4sc(C)nc4C)cs3)nc2)CC1 | 77.9% | 1100 nM | 37 nM | 94.1% | 56 nM | –
Cc1nc(C)c(-c2csc(Nc3ccc(C(=O)N4[C@@H]5CC[C@H]4CC(=NOCC(C)(C)O)C5)cn3)n2)s1 | 75.5% | – | 4.4 nM | 70% | 8.3 nM | –
CO[C@H]1C[C@H]2CC[C@@H](C1)N2C(=O)c1ccc(Nc2nc(-c3sc(C)nc3C)cs2)nc1 | – | – | 2.4 nM | – | – | –
Cc1nc(C)c(-c2csc(Nc3ccc(C(=O)N4C5CCC4CN(CC(F)(F)F)C5)cn3)n2)s1 | 8.5% | – | 2.1 nM | 0% | – | –
Cc1nc(C)c(-c2csc(Nc3ccc(C(=O)N4[C@@H]5CC[C@H]4C[C@@H](OCCO)C5)cn3)n2)s1 | – | 200 nM | 6.2 nM | – | 10 nM | –

Second part, led by results:

remaining at 0.5 h [1] | IC50 [2] | IC50 [3] | remaining at 0.5 h [4] | IC50 [5] | SMILES | other results
– | 800 nM | 19 nM | – | 27 nM | Cc1nc(C)c(-c2csc(Nc3ccc(C(=O)N4C5COCC4CC(=O)C5)cn3)n2)s1 | Activity (Cavia porcellus): 30.8%; fraction unbound [6]: 0.1; Ratio [7]: 1.9; Ratio IC50 [8]: 42; concentration at 6 h [9]: 515 ng/mL
– | 1000 nM | 32 nM | – | 33 nM | Cc1nc(C)c(-c2csc(Nc3ccc(C(=O)N4[C@@H]5CC[C@H]4C[C@@H](O)C5)cn3)n2)s1 | –
– | – | 650 nM | – | – | Cc1nc(C)c(-c2csc(Nc3ccc(C(=O)N4[C@@H]5CC[C@H]4C[C@H](O)C5)cn3)n2)s1 | –
74.5% | – | 6 nM | 84.9% | – | Cc1nc(C)c(-c2csc(Nc3ccc(C(=O)N4[C@@H]5CC[C@H]4C/C(=N/OCCO)C5)cn3)n2)s1 | –
– | 360 nM | 24 nM | – | 45 nM | Cc1nc(C)c(-c2csc(Nc3ccc(C(=O)N4C5CCC4CC(=O)C5)cn3)n2)s1 | Ratio IC50 [8]: 15
– | – | 80 nM | – | – | CC(=O)N[C@H]1C[C@H]2CC[C@@H](C1)N2C(=O)c1ccc(Nc2nc(-c3sc(C)nc3C)cs2)nc1 | –
84.8% | – | 24 nM | 89% | – | Cc1nc(C)c(-c2csc(Nc3ccc(C(=O)N4[C@@H]5CC[C@H]4C/C(=N/OCC(N)=O)C5)cn3)n2)s1 | –
71.5% | 100 nM | 3.2 nM | 57.9% | 4.3 nM | Cc1nc(C)c(-c2csc(Nc3ccc(C(=O)N4C5CNCC4COC5)cn3)n2)s1 | –
38.8% | – | 8.4 nM | 80.5% | – | Cc1nc(C)c(-c2csc(Nc3ccc(C(=O)N4[C@@H]5CC[C@H]4C/C(=N/O)C5)cn3)n2)s1 | –
88.5% | – | 770 nM | 83.5% | – | CNC(=O)N1CC2CCC(C1)N2C(=O)c1ccc(Nc2nc(-c3sc(C)nc3C)cs2)nc1 | –
63.9% | – | 620 nM | 64.9% | – | Cc1nc(C)c(-c2csc(Nc3ccc(C(=O)N4C5CCC4CNC5)cn3)n2)s1 | –
12.5% | – | 1 nM | 79.1% | – | CO/N=C1\C[C@H]2CC[C@@H](C1)N2C(=O)c1ccc(Nc2nc(-c3sc(C)nc3C)cs2)nc1 | –
– | – | 41 nM | – | – | Cc1nc(C)c(-c2csc(Nc3ccc(C(=O)N4[C@@H]5CC[C@H]4C[C@@H](CO)C5)cn3)n2)s1 | –
– | – | 530 nM | – | – | Cc1nc(C)c(-c2csc(Nc3ccc(C(=O)N4[C@@H]5CC[C@H]4C[C@@H](N)C5)cn3)n2)s1 | –
92.1% | 600 nM | 32 nM | 59.4% | 21 nM | CC(=O)N1CC2CCC(C1)N2C(=O)c1ccc(Nc2nc(-c3sc(C)nc3C)cs2)nc1 | –
